Measurements as given in patent US20100249071A1, “Modulators of S1P and Methods of Making And Using” (Exelixis, Inc., priority 2009, published 2010).
Where two headings read alike, the source gives them in different places.

How the values were obtained:
[1] = molecular target: T1, hS1P1R (hEdg1) membrane protein (Homo sapiens, UniProt P21453); test: hS1P1R GTPγS binding assay (Assay 3a); assay type: biochemical
T1 construct: purchased Lonza
Method in brief: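 Membranes (4 μg) expressing hS1P1R incubated 1 h at room temperature with 30 μM GDP, 0.1 nM [^35S]GTPγS, 0.25% fatty acid free BSA and serially diluted agonist in Tris-HCl pH 7.9/NaCl/MgCl2/EGTA buffer. Bound [^35S]GTPγS captured on WGA SPA beads (further 1 h) and counted.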

[2] = molecular target: T2, S1P1 (Homo sapiens, UniProt P21453); test: Tango β-arrestin recruitment assay in U2OS cells (Assay 2b); assay type: cell-based; conditions: read-out: Assay 2b EC50
T2 construct: host or cells: U2OS
Method in brief: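 In this agonist-mode Tango assay, U2OS cells carrying S1P1 and the reporter were serum-starved 48 h, then exposed overnight at 37 °C to compound (10 points, 3-fold, top 1 μM, 1% DMSO). β-Lactamase F460/F530 ratio was normalized to 1 μM S1P, and EC50 was fitted.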

[3] = molecular target: T3, hS1PR5 (hEdg8) membrane protein (Homo sapiens, UniProt Q9H228); test: hS1P5R GTPγS binding assay (Assay 4); assay type: biochemical
T3 construct: expressed in transfected cells; host or cells: CHO
Method in brief: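 Membranes (5 μg) from CHO cells expressing hS1PR5, incubated 1 h at room temperature with 30 μM GDP, 0.1 nM [35S]GTPγS, 0.25% fatty acid free BSA and serially diluted compound in pH 7.9 Tris buffer with MgCl2. WGA SPA beads added for another 1 h, then bound [35S]GTPγS counted by scintillation.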

[4] = molecular target: T4, S1P3 (Homo sapiens, UniProt Q99500); test: S1P3 Tango β-arrestin recruitment assay in HEK293 cells (Assay 5); assay type: cell-based
T4 construct: host or cells: HEK293 (transient transfection)
Method in brief: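 HEK293 cells transiently expressing S1P3 fused via TEV-cleavable linker to tTA, with β-arrestin2–TEV, treated 16-18 h at 37 °C with compounds (top 10 μM, 10-point 3-fold, 1% DMSO). Luciferase reporter luminescence normalised to DMSO background and 5 μM S1P control as percent activity; EC50 from concentration-response curves.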

[5] = * = rEC50 measured rather than EC50, read-out: Assay 5 rEC50 (relative EC50, cells marked *)

T2 sequence (P32121 whole entry): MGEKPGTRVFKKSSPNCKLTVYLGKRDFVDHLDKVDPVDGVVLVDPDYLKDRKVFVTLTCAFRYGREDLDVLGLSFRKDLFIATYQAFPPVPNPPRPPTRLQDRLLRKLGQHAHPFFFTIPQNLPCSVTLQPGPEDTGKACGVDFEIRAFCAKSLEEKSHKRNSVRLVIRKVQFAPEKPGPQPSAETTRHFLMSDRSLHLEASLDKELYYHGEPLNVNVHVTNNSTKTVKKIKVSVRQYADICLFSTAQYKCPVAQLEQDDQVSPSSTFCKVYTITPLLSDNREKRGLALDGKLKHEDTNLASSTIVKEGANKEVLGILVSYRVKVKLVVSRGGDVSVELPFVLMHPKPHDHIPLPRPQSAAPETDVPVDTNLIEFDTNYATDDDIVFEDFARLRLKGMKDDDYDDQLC
T2 sequence (P21453 whole entry): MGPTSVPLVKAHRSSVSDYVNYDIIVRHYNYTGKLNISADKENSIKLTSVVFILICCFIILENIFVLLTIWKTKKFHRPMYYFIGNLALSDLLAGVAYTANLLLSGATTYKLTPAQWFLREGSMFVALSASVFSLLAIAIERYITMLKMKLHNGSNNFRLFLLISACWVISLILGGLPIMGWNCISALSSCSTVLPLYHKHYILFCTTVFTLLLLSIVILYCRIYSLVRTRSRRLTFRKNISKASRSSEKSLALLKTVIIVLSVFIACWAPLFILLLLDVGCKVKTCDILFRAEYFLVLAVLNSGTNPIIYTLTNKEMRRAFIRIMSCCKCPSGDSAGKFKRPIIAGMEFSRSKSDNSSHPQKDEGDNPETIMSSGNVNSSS
T4 sequence (P32121 whole entry): as the sequence (P32121 whole entry) above
T4 sequence (Q99500 whole entry): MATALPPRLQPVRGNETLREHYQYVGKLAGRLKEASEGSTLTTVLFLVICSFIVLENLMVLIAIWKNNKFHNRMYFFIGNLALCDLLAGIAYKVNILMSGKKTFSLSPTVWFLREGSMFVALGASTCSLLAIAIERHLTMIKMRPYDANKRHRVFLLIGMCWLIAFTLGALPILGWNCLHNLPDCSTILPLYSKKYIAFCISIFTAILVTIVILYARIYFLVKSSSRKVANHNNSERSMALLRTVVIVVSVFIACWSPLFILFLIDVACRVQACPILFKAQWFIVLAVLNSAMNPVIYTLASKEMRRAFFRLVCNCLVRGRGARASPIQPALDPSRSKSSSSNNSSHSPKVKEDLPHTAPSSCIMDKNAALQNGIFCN
T1 sequence (P21453 whole entry): as the sequence (P21453 whole entry) above
T3 sequence (Q9H228 whole entry): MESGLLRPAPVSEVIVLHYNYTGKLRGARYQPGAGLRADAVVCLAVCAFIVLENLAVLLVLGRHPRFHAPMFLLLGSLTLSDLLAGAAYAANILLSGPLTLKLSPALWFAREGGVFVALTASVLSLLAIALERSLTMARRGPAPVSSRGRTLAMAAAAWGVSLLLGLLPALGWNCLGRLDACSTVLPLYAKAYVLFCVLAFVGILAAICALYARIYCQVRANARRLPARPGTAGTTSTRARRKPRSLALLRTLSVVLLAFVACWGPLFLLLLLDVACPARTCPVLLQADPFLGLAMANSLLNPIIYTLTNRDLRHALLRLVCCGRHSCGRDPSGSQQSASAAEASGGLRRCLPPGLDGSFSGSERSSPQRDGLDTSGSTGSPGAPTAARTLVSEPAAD

Row | EC50 [1] [nM] | EC50 [2] [nM] | EC50 [3] [nM] | EC50 ([4]; read-out: Assay 5 EC50) [nM] | EC50 [4, 5] [nM] | Structure (SMILES)
1 | ≤ 10 | ≤ 10 | ≤ 10 | ≤ 250 | – | CC(C)Nc1ccc(-c2nnc(-c3cc(F)c(OC[C@@H](N)COP(=O)(O)O)cc3Cl)s2)cn1 [Entry 47, (2R)-2-amino-3-{[5-chloro-2-fluoro-4-(5-{6-[(1-methylethyl)amino]pyridin-3-yl}-1,3,4-thiadiazol-2-yl)phenyl]oxy}propyl dihydrogen phosphate]
2 | 10 to 50 | ≤ 10 | 250 to 2800 | > 10000 | – | CC(C)Nc1ncc(-c2nnc(-c3cc(F)c(OC[C@H](N)[C@@H](C)O)cc3Cl)s2)cc1Cl [Entry 48, (2R,3S)-3-amino-4-{[5-chloro-4-(5-{5-chloro-6-[(1-methylethyl)amino]pyridin-3-yl}-1,3,4-thiadiazol-2-yl)-2-fluorophenyl]oxy}butan-2-ol]
3 | ≤ 10 | ≤ 10 | 50 to 250 | > 10000 | – | N#Cc1cc(-c2nnc(-c3cc(F)c(OC[C@H](N)CO)cc3Cl)s2)ccc1OC1COC1 [Entry 49, 5-[5-(4-{[(2R)-2-amino-3-hydroxypropyl]oxy}-2-chloro-5-fluorophenyl)-1,3,4-thiadiazol-2-yl]-2-(oxetan-3-yloxy)benzonitrile]
4 | ≤ 10 | ≤ 10 | ≤ 10 | ≤ 250 | – | CC(C)Oc1ccc(-c2nnc(-c3cc(F)c(OC[C@H](N)[C@@H](C)OP(=O)(O)O)cc3Cl)s2)cc1C#N [Entry 50, (1R,2S)-2-amino-3-{[5-chloro-4-(5-{3-cyano-4-[(1-methylethyl)oxy]phenyl}-1,3,4-thiadiazol-2-yl)-2-fluorophenyl]oxy}-1-methylpropyl dihydrogen phosphate]
5 | ≤ 10 | ≤ 10 | ≤ 10 | ≤ 250 | – | CC(C)Oc1ccc(-c2nnc(-c3cc(F)c(OC[C@H](N)[C@@H](C)OP(=O)(O)O)cc3Cl)s2)cc1Cl [Entry 51, (1R,2S)-2-amino-3-{[5-chloro-4-(5-{3-chloro-4-[(1-methylethyl)oxy]phenyl}-1,3,4-thiadiazol-2-yl)-2-fluorophenyl]oxy}-1-methylpropyl dihydrogen phosphate]
6 | ≤ 10 | ≤ 10 | ≤ 10 | – | > 250 | CC(C)Nc1ccc(-c2nnc(-c3cc(F)c(OC[C@H](N)COP(=O)(O)O)cc3Cl)s2)cn1 [Entry 52, (2S)-2-amino-3-{[5-chloro-2-fluoro-4-(5-{6-[(1-methylethyl)amino]pyridin-3-yl}-1,3,4-thiadiazol-2-yl)phenyl]oxy}propyl dihydrogen phosphate]
7 | ≤ 10 | ≤ 10 | ≤ 10 | > 10000 | – | CC(C)Oc1ccc(-c2nnc(-c3cc(F)c(OC[C@H](N)[C@H](C)OP(=O)(O)O)cc3Cl)s2)cc1C#N [Entry 53, (1S,2S)-2-amino-3-{[5-chloro-4-(5-{3-cyano-4-[(1-methylethyl)oxy]phenyl}-1,3,4-thiadiazol-2-yl)-2-fluorophenyl]oxy}-1-methylpropyl dihydrogen phosphate]
8 | ≤ 10 | ≤ 10 | 10 to 50 | > 250 | – | CC(C)Nc1ccc(-c2nnc(-c3cc(F)c(OC[C@H](N)[C@H](C)OP(=O)(O)O)cc3Cl)s2)cn1 [Entry 54, (1S,2S)-2-amino-3-{[5-chloro-2-fluoro-4-(5-{6-[(1-methylethyl)amino]pyridin-3-yl}-1,3,4-thiadiazol-2-yl)phenyl]oxy}-1-methylpropyl dihydrogen phosphate]
9 | ≤ 10 | ≤ 10 | ≤ 10 | ≤ 250 | – | CC(C)Oc1ccc(-c2nnc(-c3cc(F)c(OC[C@@H](N)[C@H](C)O)cc3Cl)s2)cc1C#N [Entry 55, 5-[5-(4-{[(2R,3S)-2-amino-3-hydroxybutyl]oxy}-2-chloro-5-fluorophenyl)-1,3,4-thiadiazol-2-yl]-2-[(1-methylethyl)oxy]benzonitrile]
10 | 250 to 2800 | 250 to 2800 | > 10000 | > 10000 | – | CC(C)Nc1ccc(-c2nnc(-c3cc(F)c(OC[C@H](N)[C@H](C)O)cc3Cl)s2)cn1 [Entry 56, (2S,3S)-3-amino-4-{[5-chloro-2-fluoro-4-(5-{6-[(1-methylethyl)amino]pyridin-3-yl}-1,3,4-thiadiazol-2-yl)phenyl]oxy}butan-2-ol]
11 | 50 to 250 | 50 to 250 | 250 to 2800 | > 10000 | – | CC(C)Nc1cc(-c2nnc(-c3cc(F)c(OC[C@H](N)[C@@H](C)O)cc3Cl)s2)ccn1 [Entry 57]
12 | 250 to 2800 | ≤ 10 | 250 to 2800 | > 10000 | – | CC(C)Nc1ccc(-c2nnc(-c3cc(F)c(OC[C@@H](N)[C@H](C)O)cc3Cl)s2)cn1 [Entry 59, (2S,3R)-3-amino-4-{[5-chloro-2-fluoro-4-(5-{6-[(1-methylethyl)amino]pyridin-3-yl}-1,3,4-thiadiazol-2-yl)phenyl]oxy}butan-2-ol]
13 | ≤ 10 | 10 to 50 | 10 to 50 | > 10000 | – | Cc1cc(-c2nnc(-c3cc(F)c(OC[C@H](N)[C@@H](C)O)cc3Cl)s2)ccc1OC(C)C [Entry 60, (2R,3S)-3-amino-4-{[5-chloro-2-fluoro-4-(5-{3-methyl-4-[(1-methylethyl)oxy]phenyl}-1,3,4-thiadiazol-2-yl)phenyl]oxy}butan-2-ol]
14 | ≤ 10 | 50 to 250 | 10 to 50 | > 10000 | – | Cc1cc(-c2nnc(-c3cc(F)c(OC[C@H](N)[C@H](C)O)cc3Cl)s2)ccc1OC(C)C [Entry 61, (2S,3S)-3-amino-4-{[5-chloro-2-fluoro-4-(5-{3-methyl-4-[(1-methylethyl)oxy]phenyl}-1,3,4-thiadiazol-2-yl)phenyl]oxy}butan-2-ol]
15 | ≤ 10 | 10 to 50 | 10 to 50 | > 250 | – | Cc1cc(-c2nnc(-c3cc(F)c(OC[C@H](N)[C@H](C)O)cc3Cl)s2)cc(NC(C)C)n1 [Entry 63, (2S,3S)-3-amino-4-{[5-chloro-2-fluoro-4-(5-{2-methyl-6-[(1-methylethyl)amino]pyridin-4-yl}-1,3,4-thiadiazol-2-yl)phenyl]oxy}butan-2-ol]
16 | ≤ 10 | ≤ 10 | ≤ 10 | – | ≤ 250 | CC(C)Oc1ccc(-c2nnc(-c3cc(F)c(OC[C@@H](N)[C@H](C)OP(=O)(O)O)cc3Cl)s2)cc1Cl [Entry 64, (1S,2R)-2-amino-3-{[5-chloro-4-(5-{3-chloro-4-[(1-methylethyl)oxy]phenyl}-1,3,4-thiadiazol-2-yl)-2-fluorophenyl]oxy}-1-methylpropyl dihydrogen phosphate]
17 | 50 to 250 | 10 to 50 | 2800 to 10000 | > 10000 | – | Cc1cc(-c2nnc(-c3cc(F)c(OC[C@H](N)[C@@H](C)O)cc3Cl)s2)cnc1NC(C)C [Entry 65, (2R,3S)-3-amino-4-{[5-chloro-2-fluoro-4-(5-{5-methyl-6-[(1-methylethyl)amino]pyridin-3-yl}-1,3,4-thiadiazol-2-yl)phenyl]oxy}butan-2-ol]
18 | 10 to 50 | ≤ 10 | 250 to 2800 | > 10000 | – | Cc1cc(-c2nnc(-c3cc(F)c(OC[C@@H](N)[C@@H](C)O)cc3Cl)s2)cnc1NC(C)C [Entry 67, (2R,3R)-3-amino-4-{[5-chloro-2-fluoro-4-(5-{5-methyl-6-[(1-methylethyl)amino]pyridin-3-yl}-1,3,4-thiadiazol-2-yl)phenyl]oxy}butan-2-ol]
